From the supplement of paper PMC10307832

Tests used:
Experiment in all cases: relative viability (nuclei count vs DMSO), 5 days (fraction); higher = more cells survive
EHT 1864 = compound: C1COCCN1CC2=CC(=O)C(=CO2)OCCCCCSC3=C4C=CC(=CC4=NC=C3)C(F)(F)F [EHT 1864]
Summary of the method: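 Lung cancer cell lines received five library-drug doses (not always all listed) spaced by √10, pinned on vehicle-anchored 1536-well plates after an overnight stay at 37 °C. Five days later, with no medium change, nuclei were Hoechst-stained, imaged at 4× and counted with MetaXpress. Viability is treated-well nuclei relative to vehicle-well nuclei, as a median across plates. Passing plates had control CV below 25% and at least one doubling.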

EHT 1864 + Navitoclax = compound: C1COCCN1CC2=CC(=O)C(=CO2)OCCCCCSC3=C4C=CC(=CC4=NC=C3)C(F)(F)F [EHT 1864] + CC1(C)CCC(c2ccc(Cl)cc2)=C(CN2CCN(c3ccc(C(=O)NS(=O)(=O)c4ccc(N[C@H](CCN5CCOCC5)CSc5ccccc5)c(S(=O)(=O)C(F)(F)F)c4)cc3)CC2)C1 [Navitoclax] (partner 0.5 µM)
Summary of the method: (§1)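 Medians of duplicate plates are given as relative viability. That measure is the nuclei count in treated wells divided by the count in vehicle wells. Counts were taken on 4× images of lung cancer cell lines in 1536-well plates, 5 days after pin-tool dosing the day after seeding with one drug alone or a fixed anchor-drug dose plus five library-drug doses (not always all listed) in √10 steps.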

EHT 1864 + Tozasertib = compound: C1COCCN1CC2=CC(=O)C(=CO2)OCCCCCSC3=C4C=CC(=CC4=NC=C3)C(F)(F)F [EHT 1864] + Cc1cc(Nc2cc(N3CCN(C)CC3)nc(Sc3ccc(NC(=O)C4CC4)cc3)n2)n[nH]1 [Tozasertib] (partner 0.1 µM)
Summary of the method: as §1

EHT 1864 + Phenformin = compound: C1COCCN1CC2=CC(=O)C(=CO2)OCCCCCSC3=C4C=CC(=CC4=NC=C3)C(F)(F)F [EHT 1864] + N=C(N)NC(=N)NCCc1ccccc1 [Phenformin] (partner 250 µM)
Summary of the method: as §1

Cell Line | relative viability (EHT 1864; 0.04 µM) | relative viability (EHT 1864; 0.1265 µM) | relative viability (EHT 1864; 0.4 µM) | relative viability (EHT 1864; 1.265 µM) | relative viability (EHT 1864; 4 µM) | relative viability (EHT 1864 + Navitoclax; first compound 0.04 µM) | relative viability (EHT 1864 + Navitoclax; first compound 0.1265 µM) | relative viability (EHT 1864 + Navitoclax; first compound 0.4 µM) | relative viability (EHT 1864 + Navitoclax; first compound 1.265 µM) | relative viability (EHT 1864 + Navitoclax; first compound 4 µM) | relative viability (EHT 1864 + Tozasertib; first compound 0.04 µM) | relative viability (EHT 1864 + Tozasertib; first compound 0.1265 µM) | relative viability (EHT 1864 + Tozasertib; first compound 0.4 µM) | relative viability (EHT 1864 + Tozasertib; first compound 1.265 µM) | relative viability (EHT 1864 + Tozasertib; first compound 4 µM) | relative viability (EHT 1864 + Phenformin; first compound 0.04 µM) | relative viability (EHT 1864 + Phenformin; first compound 0.1265 µM) | relative viability (EHT 1864 + Phenformin; first compound 0.4 µM) | relative viability (EHT 1864 + Phenformin; first compound 1.265 µM) | relative viability (EHT 1864 + Phenformin; first compound 4 µM)
LOU-NH91 | 0.973 | 0.909 | 1.05 | 1.04 | 0.892 | 0.693 | 0.652 | 0.789 | 0.694 | 0.567 | 0.614 | 0.551 | 0.67 | 0.609 | 0.69 | 0.783 | 0.635 | 0.859 | 0.738 | 0.66
LU99A | 0.883 | 0.758 | 0.968 | 1 | 0.893 | 0.689 | 0.566 | 0.716 | 0.818 | 0.933 | 0.295 | 0.254 | 0.253 | 0.244 | 0.216 | 0.811 | 0.557 | 0.821 | 0.857 | 0.808
LXF-289 | 0.961 | 0.932 | 0.95 | 0.961 | 0.886 | 0.952 | 0.837 | 0.885 | 0.811 | 0.939 | 0.201 | 0.144 | 0.196 | 0.209 | 0.203 | 0.517 | 0.463 | 0.507 | 0.549 | 0.547
NCI-H23 | 0.909 | 0.696 | 0.912 | 1.02 | 1.03 | 0.718 | – | 0.627 | 0.784 | 0.816 | 0.397 | 0.372 | 0.373 | 0.291 | 0.367 | 0.778 | 0.477 | 0.784 | 0.604 | 0.775
NCI-H322M | 0.95 | 0.921 | 0.942 | 1.05 | 0.923 | 1.13 | 1.26 | 1.13 | 1.29 | 1.23 | 0.477 | 0.457 | 0.448 | 0.461 | 0.51 | 0.798 | 0.739 | 0.752 | 0.783 | 0.824
NCI-H441 | 1.03 | 0.747 | 0.941 | 1.12 | 1.17 | 0.542 | 0.536 | 0.513 | 0.611 | 0.233 | 0.55 | 0.544 | 0.596 | 0.507 | 0.481 | 0.845 | 0.604 | 0.717 | 0.853 | 0.932
NCI-H460 | 1.01 | 0.921 | 0.966 | 0.965 | 0.857 | 1.11 | 1.16 | 1.03 | 1.16 | 1.02 | 0.398 | 0.453 | 0.384 | 0.174 | 0.152 | 0.508 | 0.443 | 0.513 | 0.518 | 0.568
NCI-H520 | 0.885 | 0.889 | 0.889 | 1.04 | 1.02 | 0.999 | 1.07 | 1.06 | 1.08 | 1.06 | 0.377 | 0.376 | 0.388 | 0.483 | 0.377 | 0.517 | 0.422 | 0.785 | 0.669 | 0.711
NCI-H596 | 0.947 | 0.829 | 1.02 | 0.929 | 0.991 | 1.1 | 0.892 | 1.08 | 0.812 | 0.888 | 0.843 | 0.733 | 0.869 | 1.06 | 0.754 | 0.75 | 0.523 | 0.753 | 0.571 | 0.813
NCI-H647 | 1.01 | 0.775 | 1.03 | 1.02 | 0.908 | 0.981 | 0.837 | 1.17 | 1.12 | 1.05 | 0.218 | 0.169 | 0.414 | 0.175 | 0.132 | 0.589 | 0.432 | 0.561 | 0.6 | 0.545
NCI-H727 | 0.924 | 0.909 | 0.936 | 0.979 | 0.946 | 0.554 | 0.507 | 0.348 | – | 0.324 | 0.574 | 0.573 | 0.611 | 0.503 | 0.592 | 0.551 | 0.574 | 0.481 | 0.461 | 0.597
NCI-H838 | 0.915 | 0.851 | 0.99 | 1.01 | 1 | 1.08 | 1.04 | 1.14 | 1.08 | 1.14 | 0.244 | 0.227 | 0.26 | 0.241 | 0.223 | 0.558 | 0.513 | 0.638 | 0.697 | 0.588
NCI-H1355 | 0.949 | 0.732 | 0.965 | 0.984 | 0.987 | 1.04 | 0.843 | 0.907 | 0.904 | 0.838 | 0.558 | 0.452 | 0.582 | 0.391 | 0.464 | 0.471 | 0.425 | 0.447 | 0.446 | 0.433
NCI-H1395 | 0.933 | 0.752 | 1.01 | 0.86 | 0.861 | 1.12 | 1.02 | 1.18 | 0.967 | 0.875 | 0.831 | 0.65 | 0.772 | 0.719 | 0.723 | 0.518 | 0.422 | 0.45 | 0.474 | 0.431
NCI-H1437 | 1.05 | 0.94 | 0.936 | 0.839 | 0.762 | 1.06 | 1.03 | 0.967 | 0.819 | 0.671 | 0.428 | 0.303 | 0.4 | 0.343 | 0.377 | 0.34 | 0.262 | 0.298 | 0.311 | 0.335
